The values below come from ChEMBL document CHEMBL1201862, “PubChem BioAssay data set” (2004).

Activity calls are given as the source filed them.

Targets include Cytochrome P450 3A4 (Homo sapiens, UniProt P08684); Cytochrome P450 2C9 (Homo sapiens, UniProt P11712); Cytochrome P450 2D6 (Homo sapiens, UniProt P10635).
A further assay concerns the target T1, Protein skinhead-1 (Caenorhabditis elegans, UniProt P34707).
T1 sequence (P34707 whole entry): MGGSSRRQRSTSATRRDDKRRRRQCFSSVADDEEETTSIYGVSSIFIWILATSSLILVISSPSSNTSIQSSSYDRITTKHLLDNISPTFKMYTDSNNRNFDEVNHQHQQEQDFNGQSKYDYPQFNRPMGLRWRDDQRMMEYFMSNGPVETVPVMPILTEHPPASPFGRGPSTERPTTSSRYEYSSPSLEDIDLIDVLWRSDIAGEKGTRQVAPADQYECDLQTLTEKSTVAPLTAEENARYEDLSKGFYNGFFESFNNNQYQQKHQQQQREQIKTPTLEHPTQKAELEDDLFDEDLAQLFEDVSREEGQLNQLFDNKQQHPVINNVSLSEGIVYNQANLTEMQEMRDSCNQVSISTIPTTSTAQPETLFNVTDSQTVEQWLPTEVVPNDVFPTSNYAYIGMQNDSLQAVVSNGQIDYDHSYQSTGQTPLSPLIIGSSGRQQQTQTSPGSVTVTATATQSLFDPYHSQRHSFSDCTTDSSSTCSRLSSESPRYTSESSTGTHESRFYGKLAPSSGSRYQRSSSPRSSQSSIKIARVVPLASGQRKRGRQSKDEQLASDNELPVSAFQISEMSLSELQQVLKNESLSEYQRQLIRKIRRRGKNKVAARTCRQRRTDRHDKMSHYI
Type of assay: functional.

The nature of a further assay: cells. The class given is functional.
Assay [1] has as its target T2, Corticotropin-releasing factor receptor 2/Corticotropin-releasing factor-binding protein (Homo sapiens, UniProt P24387+Q13324).
T2 sequence (Q13324 whole entry): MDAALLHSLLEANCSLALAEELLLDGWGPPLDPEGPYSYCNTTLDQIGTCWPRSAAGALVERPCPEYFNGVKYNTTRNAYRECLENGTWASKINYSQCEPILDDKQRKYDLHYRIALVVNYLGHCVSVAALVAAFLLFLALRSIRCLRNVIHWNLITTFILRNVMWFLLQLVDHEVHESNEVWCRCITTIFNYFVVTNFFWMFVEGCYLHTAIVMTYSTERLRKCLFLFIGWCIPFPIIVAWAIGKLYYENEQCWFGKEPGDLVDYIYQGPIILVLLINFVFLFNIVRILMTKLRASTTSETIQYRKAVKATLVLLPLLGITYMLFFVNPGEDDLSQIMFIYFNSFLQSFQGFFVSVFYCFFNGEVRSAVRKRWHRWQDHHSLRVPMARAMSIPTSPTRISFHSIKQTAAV
T2 sequence (P24387 whole entry): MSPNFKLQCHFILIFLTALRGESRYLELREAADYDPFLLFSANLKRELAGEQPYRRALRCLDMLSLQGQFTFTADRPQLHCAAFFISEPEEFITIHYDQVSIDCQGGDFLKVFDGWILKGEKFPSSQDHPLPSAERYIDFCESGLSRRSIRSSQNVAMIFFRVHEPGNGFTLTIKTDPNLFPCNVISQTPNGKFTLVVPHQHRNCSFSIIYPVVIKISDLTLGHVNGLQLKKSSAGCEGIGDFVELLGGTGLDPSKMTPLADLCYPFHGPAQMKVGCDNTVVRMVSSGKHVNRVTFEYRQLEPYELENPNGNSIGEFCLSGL
The experiment in a line: Dose Response confirmation of uHTS hits for small molecule antagonists of the CRF-binding protein and CRF-R2 receptor complex. Type of assay: functional. The following applies: read-out: IC50_Mean.

In assay [2] the target is T2, Corticotropin-releasing factor receptor 2/Corticotropin-releasing factor-binding protein. The experiment in a line: activators of CRF receptor 2 with binding protein – uHTS hits, confirmation (AID 602473). Type of assay: functional. The conditions noted are these: read-out: EC50_Mean.
Assay [3] is described as follows: Luminescence Cell-Based Dose Retest to Confirm Inhibitors of Cancer Stem Cells. [Related pubchem assays (depositor defined):AID2717, AID2721]. The class given is functional. The following applies: Homo sapiens.
For assay [4], the target named is T3, Heat shock factor protein 1 (Mus musculus, UniProt P38532).
T3 sequence (P38532 whole entry): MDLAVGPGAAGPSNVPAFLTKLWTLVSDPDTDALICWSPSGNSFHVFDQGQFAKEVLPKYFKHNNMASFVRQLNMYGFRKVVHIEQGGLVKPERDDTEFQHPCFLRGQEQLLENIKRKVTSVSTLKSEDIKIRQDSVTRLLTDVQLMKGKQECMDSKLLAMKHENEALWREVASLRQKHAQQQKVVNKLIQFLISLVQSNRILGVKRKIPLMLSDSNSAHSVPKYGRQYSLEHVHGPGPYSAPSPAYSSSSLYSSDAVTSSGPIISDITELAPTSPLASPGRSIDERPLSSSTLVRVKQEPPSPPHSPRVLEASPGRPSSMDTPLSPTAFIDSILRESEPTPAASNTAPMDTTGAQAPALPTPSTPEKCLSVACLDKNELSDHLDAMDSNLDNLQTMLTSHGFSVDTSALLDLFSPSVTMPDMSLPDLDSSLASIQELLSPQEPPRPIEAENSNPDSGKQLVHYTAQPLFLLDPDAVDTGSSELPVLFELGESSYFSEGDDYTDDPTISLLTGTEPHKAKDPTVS
The experiment in a line: HSF1 potentiators in luciferase reporter cells, confirmation, cell-based, NIH3T3, luminescence, dose retest (AID 435004).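 Further: stress induced by proteasome inhibitor MG132 added 30 min after compound; luciferase reporter driven by HSF1 response element in NIH3T3 cells; actives raise luminescence as potentiators of the MG132 stress response.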 The class given is functional. A general note: A reporter such as luciferase makes a cellular process visible.

The next assay relates to H9c2. Description: cells. The class given is functional, cell-based. The following applies: Rattus norvegicus, H9c2, Myocardium.
The next assay has as its target T4, Cytochrome P450 1A2 (Homo sapiens, UniProt P05177).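 Further: PubChem cytochrome P450 panel assay, CYP1A2 panel member.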
T4 sequence (P05177 whole entry): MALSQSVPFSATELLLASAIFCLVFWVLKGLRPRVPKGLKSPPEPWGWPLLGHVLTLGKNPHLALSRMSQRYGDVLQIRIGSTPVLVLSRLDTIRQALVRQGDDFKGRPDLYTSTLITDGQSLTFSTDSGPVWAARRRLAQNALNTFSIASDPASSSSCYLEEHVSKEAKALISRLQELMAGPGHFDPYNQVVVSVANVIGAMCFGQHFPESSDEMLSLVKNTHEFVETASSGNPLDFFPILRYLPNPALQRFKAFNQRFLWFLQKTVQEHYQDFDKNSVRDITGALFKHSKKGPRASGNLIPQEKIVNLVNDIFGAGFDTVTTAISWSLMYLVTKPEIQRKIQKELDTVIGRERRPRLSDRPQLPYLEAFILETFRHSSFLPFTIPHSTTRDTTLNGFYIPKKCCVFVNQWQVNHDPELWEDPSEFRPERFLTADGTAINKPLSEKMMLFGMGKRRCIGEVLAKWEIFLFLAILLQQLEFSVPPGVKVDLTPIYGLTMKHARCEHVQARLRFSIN

Sequence of Cytochrome P450 2C9 (P11712 whole entry): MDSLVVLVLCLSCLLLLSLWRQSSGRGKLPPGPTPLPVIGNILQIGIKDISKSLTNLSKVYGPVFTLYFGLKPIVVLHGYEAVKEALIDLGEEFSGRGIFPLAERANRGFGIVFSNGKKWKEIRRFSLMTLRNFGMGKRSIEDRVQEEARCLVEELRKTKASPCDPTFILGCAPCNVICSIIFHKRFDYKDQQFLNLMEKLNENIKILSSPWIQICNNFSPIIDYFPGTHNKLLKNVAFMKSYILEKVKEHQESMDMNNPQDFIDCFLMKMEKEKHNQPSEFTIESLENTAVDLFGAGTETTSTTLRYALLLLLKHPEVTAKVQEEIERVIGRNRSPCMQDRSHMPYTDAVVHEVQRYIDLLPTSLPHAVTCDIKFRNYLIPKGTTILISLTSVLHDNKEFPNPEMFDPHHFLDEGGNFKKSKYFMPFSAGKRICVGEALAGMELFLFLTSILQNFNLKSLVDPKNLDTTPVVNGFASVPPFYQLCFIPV
Sequence of Cytochrome P450 3A4 (P08684 whole entry): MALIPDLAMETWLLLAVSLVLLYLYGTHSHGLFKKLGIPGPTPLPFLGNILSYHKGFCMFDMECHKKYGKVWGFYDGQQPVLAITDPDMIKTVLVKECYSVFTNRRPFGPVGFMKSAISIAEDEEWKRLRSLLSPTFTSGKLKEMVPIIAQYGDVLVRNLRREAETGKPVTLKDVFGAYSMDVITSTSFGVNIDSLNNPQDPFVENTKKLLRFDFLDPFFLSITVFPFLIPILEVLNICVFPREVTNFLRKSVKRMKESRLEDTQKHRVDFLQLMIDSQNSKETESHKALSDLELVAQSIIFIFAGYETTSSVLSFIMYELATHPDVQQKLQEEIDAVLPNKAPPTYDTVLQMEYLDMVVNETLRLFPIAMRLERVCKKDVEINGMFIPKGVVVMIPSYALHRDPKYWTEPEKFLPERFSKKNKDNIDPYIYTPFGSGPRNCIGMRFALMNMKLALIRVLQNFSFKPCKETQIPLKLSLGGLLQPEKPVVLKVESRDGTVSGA
Sequence of Cytochrome P450 2D6 (P10635 whole entry): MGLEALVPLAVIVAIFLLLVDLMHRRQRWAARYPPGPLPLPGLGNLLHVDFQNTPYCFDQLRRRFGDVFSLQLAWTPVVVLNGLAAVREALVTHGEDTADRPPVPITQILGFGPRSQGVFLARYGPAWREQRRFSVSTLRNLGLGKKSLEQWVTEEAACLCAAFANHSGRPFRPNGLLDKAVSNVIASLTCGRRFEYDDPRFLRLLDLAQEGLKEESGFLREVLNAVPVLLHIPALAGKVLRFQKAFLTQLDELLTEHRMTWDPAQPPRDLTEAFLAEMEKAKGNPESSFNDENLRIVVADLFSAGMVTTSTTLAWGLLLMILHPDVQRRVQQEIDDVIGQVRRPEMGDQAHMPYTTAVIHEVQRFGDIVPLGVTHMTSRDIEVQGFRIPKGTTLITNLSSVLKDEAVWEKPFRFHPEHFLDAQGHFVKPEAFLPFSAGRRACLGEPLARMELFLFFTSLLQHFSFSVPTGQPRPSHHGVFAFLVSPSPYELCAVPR

As for `Cc1ccc(C(=O)N(C)CC(=O)Nc2ccc(N3CCOCC3)cc2)s1`, at Protein skinhead-1, the IC50 was > 100 µM (inactive).

Consider `CCOC(=O)C1CCN(C(=O)COc2cc(C)c(Br)c(C)c2)CC1`, for which the IC50 in “cells” is 30.2 µM (active).

For the compound `Cc1cccn2c(/C=N/OCc3cccc(F)c3)c(-c3ccc(Cl)cc3)nc12`, the IC50 in [1] was > 47.1 µM (inactive). For the same compound, the EC50 in [2] is > 53 µM (inactive). Also, the figures for the AC50 (on Cytochrome P450 3A4; in assay [3]) were 14.1 µM (inconclusive) and 4.13 µM (active), respectively.

As for `CC(=O)Oc1ccc(/C=C2\N=C(C3CCCCC3)OC2=O)cc1`, in “cells”, the IC50 is 33.9 µM (active).

`O=C1CC(N(Cc2ccc3c(c2)OCO3)C(=O)Nc2ccc(F)cc2)C(=O)N1c1ccccc1` (stereo not drawn): in assay [4], the EC50 was > 260 µM (inactive).

Take `O=C(O)c1ccc2c(c1)CCCN2`: the IC50 at Protein skinhead-1 is > 100 µM (inactive).

Regarding `CCOC(=O)CN1NC2(CCCC(C)C2)N=C1S` (stereo not drawn), the IC50 in “cells” is 48.9 µM (active).

Regarding `CC(C)(CN)CC(=O)O`, the EC50 in assay [4] is > 260 µM (inactive).

As for `Cc1ccc(-n2nc3c(c2NC(=O)c2ccc(OC(C)C)cc2)C[S+]([O-])C3)cc1` (stereo not drawn), in assay [1], the IC50 is > 47.1 µM (inactive). Further, the EC50 in assay [2] was > 53 µM (inactive).

Regarding `O=[N+]([O-])c1ccc(Cc2nnc(O)c3ccccc23)cc1`, the IC50 was > 79 µM (inactive) in the assay with H9c2 and > 100 µM (inactive) at Protein skinhead-1.

As for `O=C(Nc1ccc(Cl)cc1)OCc1cc(-c2ccccc2)on1`, the half-maximal activity concentration (AC50) at Cytochrome P450 2C9 is 2.82 µM (inconclusive); on Cytochrome P450 2D6, 3.98 µM (inconclusive).

`Cc1ccc(N2Cc3ccccc3OC(C)C2=O)cc1` (stereo not drawn): the EC50 in [4] was > 260 µM (inactive).

With `Cc1ccc(/C=C2\OC(=O)c3ccccc32)cc1`, the AC50 on Cytochrome P450 2C9 is 0.355 µM (inconclusive).

For the compound `O=[N+]([O-])c1ccc(/C=N/NS(=O)(=O)c2ccc(Cl)cc2)o1`, the IC50 in “cells” was 6.23 µM (active).

As for `CC(=O)CSc1nc2ccccc2s1`, at Protein skinhead-1, the IC50 is > 100 µM (inactive).

As to `CCc1ccc(-n2c(SCC(=O)Nc3cc(C)[nH]n3)nc3nncc-3c2O)cc1`, the IC50 on Protein skinhead-1 is > 100 µM (inactive).

Turning to `CCOC(=O)C1=C(C)N=C(C)/C(=C(\O)OCC)C1c1sccc1C` (stereo not drawn), the AC50 on Cytochrome P450 2C9 was 0.891 µM (inconclusive).

With `Clc1ccc(Nc2ncnc3c2cnn3-c2ccccc2)cc1`, the IC50 on Protein skinhead-1 is > 100 µM (inactive).

For `O=[N+]([O-])c1cccc2ccc(/C=C/c3ccc(F)cc3)nc12`, the IC50 on Protein skinhead-1 was > 100 µM (inactive).

Consider `Cc1cccc(C)c1NCc1nnc(SCC(=O)Nc2nc(-c3ccccc3)cs2)n1-c1ccccc1`, for which the EC50 in assay [4] was > 260 µM (inactive).

Take `COc1ccc(OC)c(-n2c(=O)c3ccccc3c3ccccc3c2=O)c1`: the EC50 in assay [4] is 30.2 µM (active).

`CCC(C)NC(=O)CC(NS(=O)(=O)c1ccc(Cl)cc1)c1ccco1` (stereo not drawn): the EC50 in assay [4] is > 260 µM (inactive).

Turning to `COC(=O)C1=C(C)N(c2ccc(OC)cc2)C(C)=C(C(=O)OC)C1c1ccccc1`, the IC50 in assay [1] was > 47.1 µM (inactive). For the same compound, in assay [2], the EC50 was > 53 µM (inactive).

Regarding `CCOc1ccc(S(=O)(=O)NCCSc2ccccc2)cc1`, the EC50 in assay [4] is > 260 µM (inactive).

For the compound `COc1ccccc1C(=O)NCCC(=O)N1CCN(c2ccccc2O)CC1`, the IC50 in assay [1] was > 47.1 µM (inactive). In [2], the EC50 is > 53 µM (inactive).

For the compound `O=C(CCN1CCCCC1=O)NC1CCCN(Cc2ccc(Cl)cc2)C1` (stereo not drawn), the IC50 in assay [1] was > 47.1 µM (inactive). Also, the EC50 in assay [2] was > 53 µM (inactive).

With `COC(=O)C(C)Sc1nc2c(c(=O)n(C)c(=O)n2C)n1CCC(C)C` (stereo not drawn), the EC50 in [4] is > 260 µM (inactive).

For `C/C(=N\OCC(=O)Nc1ccc(F)c(F)c1F)c1cc2ccccc2o1`, in assay [1], the IC50 was > 47.1 µM (inactive). In addition, in assay [2], the EC50 is > 53 µM (inactive).

Consider `Cc1cccc(-c2noc(C(C)NC(=O)c3ccco3)n2)c1` (stereo not drawn), for which the IC50 in assay [1] is > 47.1 µM (inactive). Further, in assay [2], the EC50 was > 53 µM (inactive).

Consider `O=C(CSc1nc2ccccc2n1CCc1ccccc1)NC1CCS(=O)(=O)C1` (stereo not drawn), for which the IC50 in assay [1] is > 47.1 µM (inactive). Further, in assay [2], the EC50 was > 53 µM (inactive).

With `NC(=O)c1ccc([N+](=O)[O-])cc1SCc1ccccc1`, the AC50 on Cytochrome P450 2C9 was 28.2 µM (inconclusive); at Cytochrome P450 3A4, 12.6 µM (inconclusive).

In the case of `CC(/C=C/c1cccs1)=C\C(=O)O`, the EC50 in assay [4] is > 260 µM (inactive).

Turning to `O=C1Nc2ccccc2C(O)(C(=O)NCc2ccco2)N1c1ccc(Cl)c(Cl)c1` (stereo not drawn), the IC50 at Protein skinhead-1 was > 100 µM (inactive).

Consider `CC(C)N(C(=O)C[n+]1ccsc1N)c1ccccc1`, for which the IC50 in assay [1] is > 47.1 µM (inactive). Also, the EC50 in assay [2] was > 53 µM (inactive).

Consider `COc1ccc([N+](=O)[O-])cc1NCc1ccccc1C`, for which the half-maximal activity concentration (AC50) at Cytochrome P450 2C9 and at Cytochrome P450 2D6 was 17.8 µM (inconclusive) each time.

With `Cc1ccc(C(=O)OCC(=O)N2CCCCCC2)c(O)c1`, in the assay “cells”, the IC50 is 11.1 µM (active).

Take `COC(=O)c1cc(/C=C/c2ccccc2)on1`: the AC50 on Cytochrome P450 1A2 is 2 µM (inconclusive). In “cells”, the IC50 is 5.44 µM (active).

As to `CN(C)/C=C/C(=O)c1cccc(Oc2ncccn2)c1`, in assay [4], the EC50 is > 260 µM (inactive).

Consider `COc1ccc(CNC(=O)c2sc(=S)n(-c3ccc(OC)cc3)c2N)cc1`, for which the IC50 in assay [1] was > 47.1 µM (inactive). Moreover, in [2], the EC50 is > 53 µM (inactive).

As to `Nc1cc2c(cc1Cl)-c1ccccc1C2`, the IC50 on Protein skinhead-1 is 52.5 µM (inactive).

For `COc1cc(/C=C/c2ccc3c([N+](=O)[O-])cccc3n2)ccc1OCC(=O)O`, the IC50 in “cells” was 2.39 µM (active).

As usually defined, the AC50 is the midpoint of the concentration-response curve, whichever way the signal moves.
